Converted amounts (≈) assume the structure as drawn.
How the values were obtained:
hERG channel = hERG channel (Homo sapiens, UniProt Q12809); experiment: hERG manual patch clamp assay; format: cell-based; details: HEK 293 cells stably expressing hERG channel, pH 7.35, 10 μM compound
Procedure: Cell Lines and Cell Culture
HEK 293 cell line stably expressing hERG channel (Cat # K1236) was purchased from Invitrogen. The cells were cultured in 85% DMEM, 10% dialyzed FBS, 0.1 mM NEAA, 25 mM HEPES, 100 U/mL Penicillin-Streptomycin and 5 μg/mL Blasticidin and 400 μg/mL Geneticin. Cells were split using TrypLE™ Express about three times a week, and maintained between ˜40% to ˜80% confluence. Before the assay, the cells were transferred onto the coverslips at 5×10^5 cells/per 6 cm cell culture dish and induced with doxycycline at 1 μg/mL for 48 hours.
• 1) External solution (in mM): 132 NaCl, 4 KCl, 3 CaCl2, 0.5 MgCl2, 11.1 glucose, and 10 HEPES (pH adjusted to 7.35 with NaOH) • 2) Internal solution (in mM): 140 KCl, 2 MgCl2, 10 EGTA, 10 HEPES and 5 MgATP (pH adjusted to 7.35 with KOH) • 3) hERG currents were tested in presence of 10 μM compound concentration with final concentration of DMSO of 0.1%. Experimental Procedure • 1) Removed the coverslip from the cell culture dish and placed it on the microscope stage in bath chamber. • 2) Located a desirable cell using the 10× objective. Located the tip of the electrode under the microscope using the 10× objective by focusing above the plane of the cells. Once the tip was in focus, advanced the electrode downwards towards the cell using the coarse controls of the manipulator, while simultaneously moving the objective to keep the tip in focus. • 3) When directly over the cell, switched to the 40× objective and used the fine controls of the manipulator to approach the surface of the cell in small steps. • 4) Applied gentle suction through the side-port of the electrode holder to form a gigaohm seal. • 5) Used the Cfast to remove the capacity current that was in coincidence with the voltage step. Obtained the whole cell configuration by applying repetitive, brief, strong suction until the membrane patch ruptured. • 6) Set membrane potential to −60 mV at this point to ensure that hERG channels were not • open. The spikes of capacity current should then be cancelled using the Cslow on the amplifier. 7) Set holding potential to −90 mV for 500 ms; recorded current at 50 kHz and filtered at 10 kHz. Leaking current was tested at −80 mV for 500 ms. • 8) The hERG current was elicited by depolarizing at +30 mV for 4.8 seconds and then the voltage was taken back to −50 mV for 5.2 seconds to remove the inactivation and observe the deactivating tail current. The maximum amount of tail current size was used to determine hERG current amplitude. • 9) Recorded current for 120 seconds to assess the current stability. Only stable cells with recording parameters above threshold were applied for the compound administrations. • 10) Firstly vehicle control was applied to the cells to establish the baseline. […] In order to ensure the good performance of cultured cells and operations, the positive control, Dofetilide, with 5 dose concentration was also used to test the same batch of cells. Data Analysis
The following criteria were used to determine data acceptability. • 1) Initial seal resistance >1 GΩ; • 2) Leak currents <50% of the control peak tail currents at any time; • 3) The peak tail amplitude >250 pA; • 4) Membrane resistance Rm>500 MΩ; • 5) Access resistance (Ra)<10 MΩ; • 6) Apparent run-down of peak current <2.5% per min.
Data that met the above criteria for hERG current quality were further analyzed as the following steps. • 1) Percent hERG current inhibition was calculated using the following equation. • Note: PatchMaster or Clampfit software was used to extract the peak current from the original data.
[formula] • 2) The dose response curve of test compounds was plotted with percentage of hERG current inhibition against the concentration of test compounds using Graphpad Prism 6.0, and fit to a sigmoid dose-response curve with a variable slope.

[1] = test system: Human Heme Oxygenase-1 (HMOX-1); experiment: ELISA assay to measure human heme oxygenase-1 (HMOX-1) in HepG2 lysate; format: cell-based; details: human HMOX1 protein level in HepG2 lysate; * = average of 2 or more EC50 determinations; NA = Not Active; read-out: EC50
In short: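 Treated HepG2 cells were lysed in PBS with 0.5% Triton X100, 1 mM EDTA and protease inhibitors, and lysates were diluted 1:20. HO-1 was measured by sandwich ELISA (biotinylated detection antibody, streptavidin-HRP, chemiluminescence) at room temperature against a standard curve from 20 ng/ml. EC50 and fold change were expressed relative to DMSO control.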

Kinetic solubility = format: physicochemical; details: Dulbecco's phosphate buffer saline (DPBS), aqueous buffer, kinetic from dmso stock, DPBS pH 7.4, 25° C., 200 μM test compound
Procedure: Example 144. Kinetic Solubility
10 μL of 10 mM DMSO stock solution were aliquotted to 490 μL of DMSO solution and separately 490 μL of Dulbecco's phosphate buffer saline, DPBS, pH 7.4 solution in 1.2 mL 96-well plates in duplicate. Final concentration was 200 μM of the test compound. Samples were incubated at 25° C. with shaking at 200 rpm for 16 h. Samples were centrifuged at 3500 rpm for 20 min at 25° C., and supernatant was submitted for HPLC analysis.
Kinetic solubility was measured using the following equation: […]

Sequence of hERG channel (Q12809 whole entry): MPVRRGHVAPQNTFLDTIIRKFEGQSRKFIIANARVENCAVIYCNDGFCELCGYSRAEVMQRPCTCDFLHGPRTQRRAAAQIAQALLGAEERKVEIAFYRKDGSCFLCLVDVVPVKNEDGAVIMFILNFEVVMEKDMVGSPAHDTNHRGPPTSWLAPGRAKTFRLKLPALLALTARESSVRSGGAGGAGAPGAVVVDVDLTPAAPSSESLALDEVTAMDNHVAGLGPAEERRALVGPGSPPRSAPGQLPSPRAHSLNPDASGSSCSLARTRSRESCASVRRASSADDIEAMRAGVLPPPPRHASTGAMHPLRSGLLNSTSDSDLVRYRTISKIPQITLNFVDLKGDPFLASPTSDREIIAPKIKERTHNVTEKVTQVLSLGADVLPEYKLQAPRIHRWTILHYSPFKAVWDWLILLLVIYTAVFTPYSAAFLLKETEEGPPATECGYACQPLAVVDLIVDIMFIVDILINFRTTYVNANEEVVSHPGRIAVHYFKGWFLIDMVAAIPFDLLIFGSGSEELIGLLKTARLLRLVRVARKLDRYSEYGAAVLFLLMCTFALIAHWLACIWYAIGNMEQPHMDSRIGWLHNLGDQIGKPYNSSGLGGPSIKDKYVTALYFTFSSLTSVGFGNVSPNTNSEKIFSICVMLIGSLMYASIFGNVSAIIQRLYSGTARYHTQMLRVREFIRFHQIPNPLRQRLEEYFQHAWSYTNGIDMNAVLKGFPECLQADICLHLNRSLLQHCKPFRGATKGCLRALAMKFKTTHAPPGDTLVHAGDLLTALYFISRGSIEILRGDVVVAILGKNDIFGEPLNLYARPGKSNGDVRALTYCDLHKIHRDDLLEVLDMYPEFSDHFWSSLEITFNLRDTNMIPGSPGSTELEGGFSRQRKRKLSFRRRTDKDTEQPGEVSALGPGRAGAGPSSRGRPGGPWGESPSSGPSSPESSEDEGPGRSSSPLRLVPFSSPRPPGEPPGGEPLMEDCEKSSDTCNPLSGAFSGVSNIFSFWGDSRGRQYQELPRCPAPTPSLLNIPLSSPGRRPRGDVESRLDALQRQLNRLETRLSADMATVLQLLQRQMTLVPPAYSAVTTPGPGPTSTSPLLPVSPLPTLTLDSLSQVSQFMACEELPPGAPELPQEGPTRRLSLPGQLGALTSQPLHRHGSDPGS

SMILES	inhibition at 10 µM (hERG channel) [%]	EC50 [1] [nM]	solubility at 16 h (Kinetic solubility) [µM]
CC1CCc2nc(Nc3nc4cc(C(=O)NCCOCCO)ccc4n3C)sc2C1 (centres unmarked) [Ex 7, N-(2-(2-hydroxyethoxy)ethyl)-1-methyl-2-((6-methyl-4,5,6,7-tetrahydrobenzo[d]thiazol-2-yl)amino)-1H-benzo[d]imidazole-5-carboxamide]	6	–	–
CN(C)CC(=O)NCCNC(=O)c1ccc2c(c1)nc(Nc1nc3ccccc3o1)n2C [Example 19, 2-(benzo[d]oxazol-2-ylamino)-N-(2-(2-(dimethylamino)acetamido)ethyl)-1-methyl-1H-benzo[d]imidazole-5-carboxamide]	29	1800	–
Cn1c(Nc2nc3cc(F)ccc3[nH]2)nc2cc(C(=O)O)ccc21 [Example 73, 2-((5-fluoro-1H-benzo[d]imidazol-2-yl)amino)-1-methyl-1H-benzo[d]imidazole-5-carboxylic acid]	5	2900	–
Cn1c(Nc2nc3cc(F)c(C(F)(F)F)cc3o2)nc2cc(C(=O)NCCO)ccc21 [Example 108, 2-((5-fluoro-6-(trifluoromethyl)benzo[d]oxazol-2-yl)amino)-N-(2-hydroxyethyl)-1-methyl-1H-benzo[d]imidazole-5-carboxamide]	–	1500	0.3 (≈ 0.131 µg/mL)
COCCNC(=O)c1ccc2c(c1)nc(Nc1nc3cccnc3o1)n2C [Example 109, N-(2-methoxyethyl)-1-methyl-2-(oxazolo[5,4-b]pyridin-2-ylamino)-1H-benzo[d]imidazole-5-carboxamide]	–	6100	7.4 (≈ 2.71 µg/mL)
Cn1c(Nc2nc3cccnc3o2)nc2cc(C(=O)NCCO)ccc21 [Example 110, N-(2-hydroxyethyl)-1-methyl-2-(oxazolo[5,4-b]pyridin-2-ylamino)-1H-benzo[d]imidazole-5-carboxamide]	–	7600	18.9 (≈ 6.66 µg/mL)
Cn1c(Nc2nc3cccc(C(F)(F)F)c3o2)nc2cc(C(=O)NCCOCCO)ccc21 [Example 117, N-(2-(2-hydroxyethoxy)ethyl)-1-methyl-2-((7-(trifluoromethyl)benzo[d]oxazol-2-yl)amino)-1H-benzo[d]imidazole-5-carboxamide]	–	1800	1.2 (≈ 0.556 µg/mL)
COCCONC(=O)c1ccc2c(c1)nc(Nc1nc3ccccc3o1)n2C [Example 119, 2-(benzo[d]oxazol-2-ylamino)-N-(2-methoxyethoxy)-1-methyl-1H-benzo[d]imidazole-5-carboxamide]	–	600	0.5 (≈ 0.191 µg/mL)
CC(O)CONC(=O)c1ccc2c(c1)nc(Nc1nc3ccccc3o1)n2C (centres unmarked) [Example 120, 2-(benzo[d]oxazol-2-ylamino)-N-(2-hydroxypropoxy)-1-methyl-1H-benzo[d]imidazole-5-carboxamide]	–	2000	6.5 (≈ 2.48 µg/mL)
Cn1c(Nc2nc3ccc(C(F)(F)F)cc3o2)nc2cc(C(=O)NOCCO)ccc21 [Example 125, N-(2-hydroxyethoxy)-1-methyl-2-((6-(trifluoromethyl)benzo[d]oxazol-2-yl)amino)-1H-benzo[d]imidazole-5-carboxamide]	–	300	3.5 (≈ 1.52 µg/mL)
Cn1c(Nc2nc3ccc(OC(F)(F)F)cc3o2)nc2cc(C(=O)NOCCO)ccc21 [Example 126, N-(2-hydroxyethoxy)-1-methyl-2-((6-(trifluoromethoxy)benzo[d]oxazol-2-yl)amino)-1H-benzo[d]imidazole-5-carboxamide]	–	500	2.1 (≈ 0.948 µg/mL)
COCCONC(=O)c1ccc2c(c1)nc(Nc1nc3ccc(OC(F)(F)F)cc3o1)n2C [Example 127, N-(2-methoxyethoxy)-1-methyl-2-((6-(trifluoromethoxy)benzo[d]oxazol-2-yl)amino)-1H-benzo[d]imidazole-5-carboxamide]	–	500	< 2
Cn1c(Nc2nc3ccc(OCCO)cc3o2)nc2cc(C(=O)NOCCO)ccc21 [Example 129, N-(2-hydroxyethoxy)-2-((6-(2-hydroxyethoxy)benzo[d]oxazol-2-yl)amino)-1-methyl-1H-benzo[d]imidazole-5-carboxamide]	–	3400	14.1 (≈ 6.03 µg/mL)
Cn1c(Nc2nc3cc(F)c(C(F)(F)F)cc3o2)nc2cc(C(=O)NOCCO)ccc21 [Example 130, 2-((5-fluoro-6-(trifluoromethyl)benzo[d]oxazol-2-yl)amino)-N-(2-hydroxyethoxy)-1-methyl-1H-benzo[d]imidazole-5-carboxamide]	–	740	< 2
CC1CCc2nc(Nc3nc4cc(C(=O)NOCCO)ccc4n3C)sc2C1 (centres unmarked) [Example 131, N-(2-hydroxyethoxy)-1-methyl-2-((6-methyl-4,5,6,7-tetrahydrobenzo[d]thiazol-2-yl)amino)-1H-benzo[d]imidazole-5-carboxamide]	–	1400	6.7 (≈ 2.69 µg/mL)
COCCONC(=O)c1ccc2c(c1)nc(Nc1nc3ccc(C(C)=O)cc3o1)n2C [Example 132, 2-((6-acetylbenzo[d]oxazol-2-yl)amino)-N-(2-methoxyethoxy)-1-methyl-1H-benzo[d]imidazole-5-carboxamide]	–	1500	3.1 (≈ 1.31 µg/mL)
Cn1c(Nc2nc3ccc(C(C)(C)O)cc3o2)nc2cc(C(=O)NCCO)ccc21 [Example 133, N-(2-hydroxyethyl)-2-((6-(2-hydroxypropan-2-yl)benzo[d]oxazol-2-yl)amino)-1-methyl-1H-benzo[d]imidazole-5-carboxamide]	–	5300	9.2 (≈ 3.77 µg/mL)
Cn1c(Nc2nc3ccc(-c4cscn4)cc3o2)nc2cc(C(=O)NCCOCCO)ccc21 [Example 134, N-(2-(2-hydroxyethoxy)ethyl)-1-methyl-2-((6-(thiazol-4-yl)benzo[d]oxazol-2-yl)amino)-1H-benzo[d]imidazole-5-carboxamide]	–	1400	< 2
Cn1c(Nc2nc3ccc(N4CCOCC4)cc3o2)nc2cc(C(=O)NCCOCCO)ccc21 [Example 136, N-(2-(2-hydroxyethoxy)ethyl)-1-methyl-2-((6-morpholinobenzo[d]oxazol-2-yl)amino)-1H-benzo[d]imidazole-5-carboxamide]	–	2900	10.6 (≈ 5.09 µg/mL)
Cn1c(Nc2nc3ccccc3o2)nc2cc(C(=O)C(F)(F)F)ccc21 [Example 139, 1-(2-(benzo[d]oxazol-2-ylamino)-1-methyl-1H-benzo[d]imidazol-5-yl)-2,2,2-trifluoroethan-1-one]	–	2600	< 2
Cn1c(Nc2nc3ccccc3o2)nc2cc(C(N)C(F)(F)F)ccc21 (centres unmarked) [Example 141, N-(5-(1-amino-2,2,2-trifluoroethyl)-1-methyl-1H-benzo[d]imidazol-2-yl)benzo[d]oxazol-2-amine]	–	3600	9 (≈ 3.25 µg/mL)
